What follows are molecules tested against T1, CUL5_C112 (Homo sapiens, UniProt Q93034) (assay: IA-DTB cysteine engagement). Details: 22Rv1 cells, 20 μM probe, 1 h, relative to DMSO.
T1 construct: endogenous in cells; host or cells: 22Rv1
T1 sequence (Q93034 1-780): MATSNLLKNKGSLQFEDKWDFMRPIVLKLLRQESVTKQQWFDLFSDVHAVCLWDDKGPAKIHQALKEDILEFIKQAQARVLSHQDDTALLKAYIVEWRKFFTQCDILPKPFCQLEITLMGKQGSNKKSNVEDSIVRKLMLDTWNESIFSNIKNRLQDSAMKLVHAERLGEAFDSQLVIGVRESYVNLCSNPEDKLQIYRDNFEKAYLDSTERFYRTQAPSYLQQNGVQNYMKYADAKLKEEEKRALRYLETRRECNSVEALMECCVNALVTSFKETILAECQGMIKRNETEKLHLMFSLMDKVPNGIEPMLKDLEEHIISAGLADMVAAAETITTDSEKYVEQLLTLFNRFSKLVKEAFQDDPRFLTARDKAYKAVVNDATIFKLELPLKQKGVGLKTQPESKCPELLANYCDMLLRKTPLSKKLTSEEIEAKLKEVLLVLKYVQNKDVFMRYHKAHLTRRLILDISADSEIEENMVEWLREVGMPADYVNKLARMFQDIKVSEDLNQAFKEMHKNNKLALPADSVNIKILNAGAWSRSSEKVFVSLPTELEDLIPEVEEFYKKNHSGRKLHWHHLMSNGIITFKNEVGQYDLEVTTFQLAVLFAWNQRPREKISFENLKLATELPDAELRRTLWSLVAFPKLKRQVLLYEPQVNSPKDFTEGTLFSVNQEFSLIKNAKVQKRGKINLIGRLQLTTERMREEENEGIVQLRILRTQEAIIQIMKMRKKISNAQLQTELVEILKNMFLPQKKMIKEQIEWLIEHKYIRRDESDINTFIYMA
Assay type: binding
Method in brief: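 Read-out is TMT-based cysteine engagement, expressed as each reporter ion intensity divided by the average of the DMSO channels. Before that, probe-treated cell lysates were capped with IA-DTB, digested, enriched on streptavidin and TMT-tagged. PSMs with DMSO summed intensity <10,000 or DMSO CV >0.5 were excluded.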

% engagement CUL5_C112 [%]	Structure (SMILES)
95.5	C=CC(=O)N1C[C@@H](c2ccc(Br)cc2)[C@H]1C(=O)Nc1cccc2cccnc12 [MY-1A, (2S,3R)-1-acryloyl-3-(4-bromophenyl)-N-(quinolin-8-yl)azetidine-2-carboxamide]
11	C=CC(=O)N1C[C@H](c2ccc(Br)cc2)[C@@H]1C(=O)Nc1cccc2cccnc12 [MY-1B, (2R,3S)-1-acryloyl-3-(4-bromophenyl)-N-(quinolin-8-yl)azetidine-2-carboxamide]
−20	C=CC(=O)N1C[C@H](c2ccc(Br)cc2)[C@H]1C(=O)Nc1cccc2cccnc12 [MY-3B, (2S,3S)-1-acryloyl-3-(4-bromophenyl)-N-(quinolin-8-yl)azetidine-2-carboxamide]
−14.75	C=CC(=O)N1C[C@H](c2ccc(Br)cc2)[C@H]1C(=O)Nc1cccc2cccnc12 [MY-3A, (2S,3S)-1-acryloyl-3-(4-bromophenyl)-N-(quinolin-8-yl)azetidine-2-carboxamide]

— patent US20250034216A1, “STEREOSELECTIVE COVALENT LIGANDS FOR ONCOGENIC AND IMMUNOLOGICAL PROTEINS” (The Scripps Research Institute, priority 2021, published 2025)
